Source: patent US7250394B2, “Treatment of glial tumors with glutamate antagonists” (priority 2001, dated 2007)

What was measured:
C6 glioma cells = experiment: [3H]glutamate uptake in C6 subclones; type: cell-based, rat; conditions: 5 min
Procedure: Glutamate uptake was analyzed by mixing 0.4 μCi/ml L-[^3H]glutamate (specific activity 0.03 Ci/mmol) with 150 μM glutamate in a buffer containing […] NaCl, 1.5 mM K2HPO4, 2 MM MgCl2, 2 mM CaCl2, 10 mM HEPES and 10 mM glucose with pH 7.3 (ref 6). NaCl was replaced by choline chloride for sodium-free conditions. Cells were washed twice, then incubated in the uptake solution with various blockers for 5 min., followed by 3 washes with ice-cold buffer, and then dissolved in 0.3 N NaOH. The activity of [^3H]glutamate was detected with liquid scintillation counter (1209 Rackbeta, LKB Wallac, San Francisco, Calif.). Protein concentration was determined by using the DC protein assay kit from BioRad.

C6 cells [1] = experiment: Glutamate release from C6 subclones (bioluminescence assay); type: cell-based, rat
Procedure: Confluent cultures were washed twice and incubated in fresh culture medium. Samples of the supernatant were collected at 1, 3 and 6 hours. […] Glutamate release from freshly prepared brain slices was imaged by preparing 300-μm slices by vibratome 5 days after tumor implantation. The sections were prepared in artificial CSF as described (Kang et al., “Astrocyte-Mediated Potentiation of Inhibitory Synaptic Transmission,”Nature Neurosci., 1:683–692 (1998), which is hereby incorporated in its entirety). After 15 to 30 min. incubation in CSF, the slices were transferred to microscope stage and immersed in the bioluminescence mixture (1 ml) at room temperature. To modify the bioluminescence mixture to be tolerated by live tissue, glycerol was removed using Hank's buffered salt solution as the base. The luminescence was imaged by an intensified CCD camera (Hamamatsu, C2400) attached to a BX-50 microscope with a 50 mm camera lens (Olympus). The relative light production over the tumor versus normal brain tissue was quantified. Light emission higher than a background threshold was superimposed upon a bright-field image of the same section obtained immediately after luminescence recordings. The brain slices were fixed overnight in 4% paraformaldehyde and stained with cresylviolet.

[2] = system: cultured cortical neurons; experiment: Calcium measurement (fluo-3) in cortical neurons after conditioned medium from C6Glu+ cells; type: cell-based, rat; conditions: 10 μM
Procedure: (§1) Ten-day-old cortical neurons were loaded with the calcium indicator, fluo-3 AM (5 μM, 1 h), and the fluorescence signal was detected by confocal microscopy (MRC1000, BioRad, Richmond, Calif.) as described (Lin et al., “Ga-Junction-Mediated Propagation and Amplification of Cell Injury,” Nature Neurosci., 1:494–500 (1998); Zhang et al., “Tamoxifen-Induced Enhancement of Calcium Signaling in Glioma and MCF-7 Breast Cancer Cells,” Cancer Res., 60:5395–5400 (2000), which are hereby incorporated in their entirety). 100 μl conditioned medium from the C6 clones was added to the culture (initial media volume was 300 μl). Proliferation of the C6 subclones was determined by cell counting or by the Alamar blue assay (Biosource, Camarillo, Calif.) and cellular invasiveness evaluated using Matrigel-coated transwell inserts as described (Zhang et al., “Direct Gap Junction Communication Between Malignant Glioma Cells and Astrocytes,” Cancer Res., 59:1994–2003 (1999), which is hereby incorporated in its entirety).
After transfer of conditioned medium from C6Glu^+ cells to cultured cortical neurons that had been first loaded with the calcium indicator fluo-3, there was a rapid increase in the relative emission of fluo-3, indicating increased cytosolic calcium levels (FIG. 1B). […]

cortical neurons = experiment: Coculture of cortical neurons with C6Glu+ glioma aggregates, neuronal viability; type: cell-based, rat; conditions: pretreatment; 24 h coculture (10 μM per FIG. 1C)
Procedure: Glioma cell aggregates were produced by plating 100,000 C6Glu^+ or C6Glu^−cells in plates with non-adhesive substrate (ultra low cluster 3473; Costar, Cambridge, Mass.). Twenty-four hours later, the glioma aggregates were loaded with calcein AM (green, 2 μM, excitation 488 nm) and transferred to neuronal cultures. Cortical neuronal cultures were preloaded with the cell tracker Sytox 62 (white, 0.1 μM, excitation 647 nm).
To study the direct cellular interactions, the glioma clones were cocultured with cortical neurons (Id.). Twenty-four hours after adding aggregates of C6Glu^− cells to established neuronal cultures, 86±2% of the neurons remained viable (FIGS. 1C–D). In comparison, only 14±1% of neurons survived in sister cultures after addition of C6Glu^+ cell aggregates (FIGS. 1C–D).

C6Glu^+ cell implants = experiment: C6Glu+ glioma implantation in striata of Wistar rats, tumor size 10 days after implantation; type: in vivo, rat
Procedure: Rats (male Wistar, 250–270 g) anesthetized with pentobarbital (50 mg/kg) were placed in a stereotactic frame and 1×10^4 C6 cells were injected at a depth of 6 mm in the right striata with a Hamilton syringe. Injection coordinates with regard to bregma were 0.5 mm posterior and 3.0 mm lateral. Fischer rats (170–200 g) were injected with 1×10^4 RG2 cells. In some experiments, the glioma cells were prelabeled with the cell tracker, CMFDA (2 μM, Molecular Probes, Eugene, Oreg.) (Lin et al., “Ga-Junction-Mediated Propagation and Amplification of Cell Injury,” Nature Neurosci., 1:494–500 (1998), which is hereby incorporated in its entirety). Ten days after implantation, the anesthetized rats were perfused with 4% paraformaldehyde in phosphate buffer. After post-fixation for 24 hours, the brains were sectioned into 50–500-μm slices by a vibratome (Kang et al., “AstrocyteMediated Potentiation of Inhibitory Synaptic Transmission,” Nature Neurosci., 1:682–692 (1998), which is hereby incorporated in its entirety). The slices were imaged using a Sony digital camera (DSC-S50) and tumor volume calculated using NIH Image software.
Based upon the above observations, it was investigated whether excitotoxic neuronal death accelerates tumor expansion. […]

C6 cells [3] = experiment: Proliferation of C6 glioma cells in culture; type: cell-based, rat
Procedure: as §1

[4] = system: TUNEL^+ neurons surrounding C6Glu^+ cell tumors; experiment: TUNEL staining of degenerating neurons surrounding C6Glu+ tumors; type: in vivo, rat; conditions: five-day-old tumors; P<0.001 one-way ANOVA
Source text: Polyclonal antibodies against glutamate transporters were supplied by and used as described by Rothstein et al., “Localization of Neuronal and Glial Glutamate Transporters,” Neuron, 13:713–725 (1994), which is hereby incorporated in its entirety. Neuronal death was visualized with the TUNEL technique (Oncor, Gaithersburg), and counterstained with hematoxilin and eosin (H&E) (Lin et al., “Ga-Junction-Mediated Propagation and Amplification of Cell Injury,” Nature Neurosci., 1, 494–500 (1998), which is hereby incorporated in its entirety). […] TUNEL^+ neurons within a distance of 200 μm from the tumor border were counted by a blinded observer. […]
To test the possibility that elevation of extracellular glutamate triggers excitotoxic neuronal death in normal brain tissue invaded by C6Glu^+ tumor cells, TUNEL (terminal deoxynucleotidyl-transferase-mediated dUTP-blotin nick end-labeling) staining was used to identify degenerating neurons (Lin et al., “Ga-Junction-Mediated Propagation and Amplification of Cell Injury,” Nature Neurosci., 1, 494–500 (1998), which is hereby incorporated in its entirety). Five-day-old tumors were evaluated to minimize indirect injury resulting from the very large tumors in animals with C6Glu^+ cell implants. […]

RG2Glu^+ cell implants = experiment: RG2Glu+ glioma implantation in Fischer rats, tumor volume; type: in vivo, rat; conditions: 25 mg/kg twice daily i.p., 10 d
Procedure: Rats (male Wistar, 250–270 g) anesthetized with pentobarbital (50 mg/kg) were placed in a stereotactic frame and 1×10^4 C6 cells were injected at a depth of 6 mm in the right striata with a Hamilton syringe. Injection coordinates with regard to bregma were 0.5 mm posterior and 3.0 mm lateral. Fischer rats (170–200 g) were injected with 1×10^4 RG2 cells. In some experiments, the glioma cells were prelabeled with the cell tracker, CMFDA (2 μM, Molecular Probes, Eugene, Oreg.) (Lin et al., “Ga-Junction-Mediated Propagation and Amplification of Cell Injury,” Nature Neurosci., 1:494–500 (1998), which is hereby incorporated in its entirety). Ten days after implantation, the anesthetized rats were perfused with 4% paraformaldehyde in phosphate buffer. After post-fixation for 24 hours, the brains were sectioned into 50–500-μm slices by a vibratome (Kang et al., “AstrocyteMediated Potentiation of Inhibitory Synaptic Transmission,” Nature Neurosci., 1:682–692 (1998), which is hereby incorporated in its entirety). The slices were imaged using a Sony digital camera (DSC-S50) and tumor volume calculated using NIH Image software. […]

RG2 glioma cells = experiment: Proliferation of RG2 glioma cells in culture; type: cell-based, rat
[5] = 25 mg/kg i.p.; microdialysis; cited from earlier work
[6] = patients with Parkinson's Disease, dementia, and spasticity; cited from earlier work

O=C(O)[C@@H]1CN[C@@H](C(=O)O)C1 (relative stereo) [trans-PDC, trans-pyrrolidine-2,4-dicarboxylate]
uptake of [3H]glutamate in C6Glu+ cells (C6 glioma cells; 200 μM): not affected | [3H]glutamate uptake in C6Glu- cells (C6 glioma cells): significantly reduced | [3H]glutamate uptake in C6WT cells (C6 glioma cells): significantly reduced | glutamate release from C6 cells (C6 cells [1]; 6-h period): not affected

C[C@]12N[C@H](Cc3ccccc31)c1ccccc12 [MK801, dizocilpine]
increase in fluo-3 emission (cytosolic calcium) in cortical neurons [2]: blocked | neuronal loss in coculture with C6Glu+ cell aggregates (cortical neurons): attenuated the neuronal loss | tumor size (C6Glu^+ cell implants; 1 mg/kg twice daily i.p., 10 days after injection of C6Glu+ cells, vehicle 106±19 mm^3, P<0.001): 54.9±11 mm^3 | proliferation rate of C6 cells in vitro (C6 cells [3]; 10 or 100 μM per FIG. 4B): did not reduce | number of TUNEL+ neurons surrounding C6Glu+ cell tumors [4]: reduced

N[C@H](C(=O)O)c1ccc(C(=O)O)cc1 [S-4CPG, (s)-4-carboxyphenylglycine]
glutamate release from C6 cells (C6 cells [1]; 100 μM, any of the three clones): no effect

N[C@@H](CSSC[C@H](N)C(=O)O)C(=O)O [cystine]
glutamate release from C6 cells (C6 cells [1]; addition of extracellular cystine, any of the three clones): no effect

CC12CC3CC(C)(C1)CC(N)(C3)C2 [memantine]
growth of C6Glu+ tumors (C6Glu^+ cell implants; 10 d after implantation, P<0.001 (FIG. 6D)): effectively restricted the growth | proliferation of cultured C6Glu+ cells (C6 cells [3]; 100 μM or higher): significant reduction | proliferation of cultured C6Glu+ cells (C6 cells [3]; low concentrations): did not reduce | tumor volume smaller than vehicle-treated rats (RG2Glu^+ cell implants): 26% | proliferation of RG2 glioma cells (RG2 glioma cells; 100 μM or higher): significant reduction | proliferation of RG2 glioma cells (RG2 glioma cells; low concentrations): did not reduce | peak concentrations in the central nervous system [5]: 1 to 2 µM | side effects on prolonged administration [6]: few side effects
